Experimental data: the NIST ThermoML archive (doi:10.1016/j.jct.2005.08.002)
Numbers after ± are expanded uncertainties.

Key:
[1] = 101 kPa, Liquid; for viscosity: Capillary tube (Ostwald / Ubbelohde) method; for speed of sound: Sing-around technique in a fixed-path interferometer; for mass density: Vibrating tube method
[2] = xn = mol fraction of the nth substance listed; conditions: 101 kPa, Liquid, x2 = 0; for viscosity: Capillary tube (Ostwald / Ubbelohde) method; for speed of sound: Sing-around technique in a fixed-path interferometer; for mass density: Vibrating tube method

Compound	viscosity ([1]; 293.15 K) [mPa·s]	speed of sound ([1]; 293.15 K) [m/s]	mass density ([1]; 293.15 K) [kg/m3]	viscosity ([1]; 298.15 K) [mPa·s]	speed of sound ([1]; 298.15 K) [m/s]	mass density ([1]; 298.15 K) [kg/m3]	viscosity ([1]; 303.15 K) [mPa·s]	speed of sound ([1]; 303.15 K) [m/s]	mass density ([1]; 303.15 K) [kg/m3]	viscosity ([2]; 293.15 K) [mPa·s]	speed of sound ([2]; 293.15 K) [m/s]	mass density ([2]; 293.15 K) [kg/m3]	viscosity ([2]; 298.15 K) [mPa·s]	speed of sound ([2]; 298.15 K) [m/s]	mass density ([2]; 298.15 K) [kg/m3]	viscosity ([2]; 303.15 K) [mPa·s]	speed of sound ([2]; 303.15 K) [m/s]	mass density ([2]; 303.15 K) [kg/m3]
CC(C)=O [acetone]	0.32 ± 0.007	1185 ± 2	791.11 ± 0.15	0.306 ± 0.007	1162 ± 2	785.41 ± 0.15	0.292 ± 0.006	1140 ± 2	779.66 ± 0.15									
CC(C)=O [acetone] + CC1CCCC1										0.32 ± 0.007	1185 ± 2	791.11 ± 0.15	0.306 ± 0.007	1162 ± 2	785.41 ± 0.15	0.292 ± 0.006	1140 ± 2	779.66 ± 0.15
CCC(C)=O [butanone]	0.398 ± 0.009	1213 ± 2	804.95 ± 0.23	0.378 ± 0.008	1192 ± 2	799.74 ± 0.23	0.36 ± 0.008	1171 ± 2	794.48 ± 0.23									
CCC(C)=O [butanone] + CC1CCCC1										0.398 ± 0.009	1213 ± 2	804.95 ± 0.23	0.378 ± 0.008	1192 ± 2	799.74 ± 0.23	0.36 ± 0.008	1171 ± 2	794.48 ± 0.23
CC1CCCC1 [methylcyclopentane]	0.504 ± 0.016	1197 ± 5	746.64 ± 2	0.476 ± 0.016	1174 ± 5	741.94 ± 2	0.45 ± 0.015	1150 ± 5	737.21 ± 1.9									
CCCC(C)=O [pentan-2-one]	0.496 ± 0.011	1233 ± 2	806.26 ± 0.23	0.469 ± 0.01	1213 ± 2	801.42 ± 0.23	0.444 ± 0.009	1192 ± 2	796.58 ± 0.23									
CCCC(C)=O [pentan-2-one] + CC1CCCC1										0.496 ± 0.011	1233 ± 2	806.26 ± 0.23	0.469 ± 0.01	1213 ± 2	801.42 ± 0.23	0.444 ± 0.009	1192 ± 2	796.58 ± 0.23
